Results as given in article PMC11613437, “Prioritization of Eleven-Nineteen-Leukemia Inhibitors as Orally Available Drug Candidates for Acute Myeloid Leukemia” (Journal of Medicinal Chemistry, 2024).

Tests used:
MOLM-13 cells [1] = experiment: Cell toxicity assay (CCK-8), MOLM-13; format: cell-based
Protocol: (§1) Approximately 1 × 10^4 JURKAT, MOLM-13, MV4-11 and HEK293T cells in RPMI 1640 (no phenol red) (100 μL) were added to a 96-well plate and treated with DMSO or a compound at indicated concentrations for 72 h or 8 days. Cell viability was measured using the CCK-8 kit (Abcam, ab228554) according to the manufacturer’s instructions.

MV4-11 cells = experiment: Cell toxicity assay (CCK-8), MV4-11; format: cell-based; settings: Homo sapiens, MV4-11; 72 h treatment (superscript a)
Protocol: as §1

MOLM-13 cells [2] = experiment: Anti-proliferation assay, MOLM-13; format: cell-based; settings: Homo sapiens, MOLM-13, 336 h, approximately 2 weeks, read-out: inhibition of MOLM-13 cell proliferation
Protocol: Cell proliferation assays were carried out in a 96-well tissue culture plate at 2 × 10^4 cells/well for all cell lines except in 200 μL with a compound added as 1:1000 dilution of DMSO stocks in triplicate. Culture density was determined every 3–4 days using the countess automated cell counter, after which 2 × 10^4 live cells were reseeded in fresh media and compound. The cumulative cell count was achieved by back calculation.

ENL YEATS domain = target: T1, ENL YEATS domain (Homo sapiens, UniProt Q03111); experiment: Biolayer interferometry (BLI); format: binding; settings: biotinylated ENL YEATS on SSA biosensors, 1:1 model
T1 construct: Biotinylated-ENL YEATS was immobilized onto SSA biosensors; biotin (biotinylated)
T1 sequence (Q03111 1-138 limits assumed): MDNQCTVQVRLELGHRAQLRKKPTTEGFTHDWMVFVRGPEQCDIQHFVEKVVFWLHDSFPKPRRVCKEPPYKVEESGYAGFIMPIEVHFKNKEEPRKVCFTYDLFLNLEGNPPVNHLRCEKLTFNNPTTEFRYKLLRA
Protocol: Superstreptavidin biosensors were first incubated in an assay buffer (20 mM Tris, pH 7.8, 300 mM NaCl, 0.05% Tween 20, 0.1% DMSO) for 15 min. Sensors were coated with 40–60 μg/mL of biotinylated ENL for 15 min at room temperature. Inhibitors were serially diluted across a 96-well plate in a volume of 200 μL. Association of samples to either ENL- or uncoated reference sensors was measured over 300 s and dissociation over 300 s with baseline measurements (buffer only) for 300 s. All assays were run with continuous 1000 rpm shaking. Data were analyzed using the OctetRED data analysis software with reference subtraction in which reference uncoated sensors and reference samples were subtracted. Then, global kinetic fit was performed for all sonogram curves with a 1:1 model to get KD values.

Row | SMILES | IC50 (MOLM-13 cells [1]; 8 day treatment, n = 3, read-out: CC50 MOLM-13 (Cellular IC50, 8-days incubation)) [µM] | CC50 (MOLM-13 cells [1]; Homo sapiens, MOLM-13, 72 h treatment (superscript a)) [µM] | CC50 (MV4-11 cells) [µM] | inhibition at 1 µM (MOLM-13 cells [2]) [%] | inhibition at 10 µM (MOLM-13 cells [2]; 10 μM) [%] | Kd (ENL YEATS domain) [nM]
1 | CC(C)C1CCN1Cc1ccc(CNC(=O)c2ccc3nncn3c2)cc1 (stereo not shown) [inhibitor 13] | 6.01 ± 0.83 | 8.2 | 9.15 | 30 | 85 | 
2 | CC(C)[C@H]1CCN1Cc1cc2cnc(NC(=O)c3ccc4nncn4c3)cc2[nH]1 [SR-C-107 (R), (R)-N-(2-((2-Isopropylazetidin-1-yl)methyl)-1H-pyrrolo[3,2-c]pyridin-6-yl)-[1,2,4]triazolo[4,3-a]pyridine-6-carboxamide] |  |  |  | ~90 |  | 144
